Test results taken from ChEMBL document CHEMBL1201862, “PubChem BioAssay data set” (2004).
The source made the active and inactive calls.

Experiments:
Cytochrome P450 2D6 = Cytochrome P450 2D6 (Homo sapiens, UniProt P10635);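 further: CYP2D6 member of a cytochrome P450 panel assay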
Cytochrome P450 1A2 = biological target: T1, Cytochrome P450 1A2 (Homo sapiens, UniProt P05177);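 further: PubChem cytochrome P450 panel assay, CYP1A2 panel member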
T1 sequence (P05177 whole entry): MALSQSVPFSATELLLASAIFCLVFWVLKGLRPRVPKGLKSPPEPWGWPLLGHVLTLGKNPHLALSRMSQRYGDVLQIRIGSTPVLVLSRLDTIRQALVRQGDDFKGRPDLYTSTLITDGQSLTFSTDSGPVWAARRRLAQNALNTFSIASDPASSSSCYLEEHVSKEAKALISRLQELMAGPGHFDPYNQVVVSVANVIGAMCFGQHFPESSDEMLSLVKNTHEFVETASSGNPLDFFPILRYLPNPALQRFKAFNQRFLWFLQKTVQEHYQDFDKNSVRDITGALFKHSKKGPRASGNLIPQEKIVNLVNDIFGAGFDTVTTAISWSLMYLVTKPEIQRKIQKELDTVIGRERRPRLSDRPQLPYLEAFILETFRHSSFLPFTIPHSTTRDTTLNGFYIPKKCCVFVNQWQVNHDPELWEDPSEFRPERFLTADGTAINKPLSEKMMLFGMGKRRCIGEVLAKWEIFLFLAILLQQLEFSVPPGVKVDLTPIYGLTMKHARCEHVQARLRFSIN

[1] = NIH3T3 cell viability loss – ATP luminescence, mouse fibroblasts, counter-screen, dose response (AID 2010); type: functional, cell-based;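 further: cells exposed to compound for about 90 hours before reading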
[2] = Trypanosoma cruzi growth suppression in host cells – NIH3T3 host cells, beta-gal luminescence, confirmation (AID 2044); type: functional, cell-based;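 further: intracellular parasites grown in NIH/3T3 mouse fibroblasts as host cells; luminescent beta-galactosidase reporter signal from transgenic T. cruzi replicating inside host cells; inhibitors lower the luminescence signal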
Cytochrome P450 2C19 = Cytochrome P450 2C19 (Homo sapiens, UniProt P33261); experiment: Cytochrome panel assay with activity outcomes. Panel member name: p450-cyp2c19 Compounds with AC50 equal or less than 10 uM are considered active; type: functional
Chain of Cytochrome P450 2C19 (P33261 whole entry): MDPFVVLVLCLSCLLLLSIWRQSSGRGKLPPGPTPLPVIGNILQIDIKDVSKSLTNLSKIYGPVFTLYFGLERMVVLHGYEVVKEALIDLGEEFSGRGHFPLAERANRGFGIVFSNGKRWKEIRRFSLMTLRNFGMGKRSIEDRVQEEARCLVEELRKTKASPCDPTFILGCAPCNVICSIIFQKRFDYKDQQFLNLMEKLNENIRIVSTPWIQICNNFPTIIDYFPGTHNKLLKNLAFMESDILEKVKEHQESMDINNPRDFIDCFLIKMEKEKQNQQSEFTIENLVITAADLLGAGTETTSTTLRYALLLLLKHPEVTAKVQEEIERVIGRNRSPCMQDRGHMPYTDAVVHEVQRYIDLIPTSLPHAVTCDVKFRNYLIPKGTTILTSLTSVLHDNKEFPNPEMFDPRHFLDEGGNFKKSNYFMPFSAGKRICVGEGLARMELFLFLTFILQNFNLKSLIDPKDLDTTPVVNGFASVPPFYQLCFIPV

[3] = luciferase reporter signal suppression in cells – H4 neuroglioma cells, luminescence, dose response (AID 1990); type: functional, cell-based
[4] = Luminescence Cell-Based Dose Response HTS to Identify Inhibitors of 5'UTR Stem-Loop Driven Prion Protein mRNA Translation in H4 Neuroglioblastoma Cells. [Related pubchem assays: 1827 (Project Summary), 1813 (Primary HTS)]; type: functional
[5] = alpha-synuclein stem-loop luciferase translation blockers – H4 neuroglioma cells, luminescence, confirmation (AID 1988); type: functional, cell-based
Streptococcus = experiment: GAS UMAA2166 growth inhibition – luminescence, BacTiterGlo, counter-screen for streptokinase expression inhibitor project, dose response (AID 1915); type: functional, organism-based;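 further: potency for reduction of bacterial viability or growth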

Chain of Cytochrome P450 2D6 (P10635 whole entry): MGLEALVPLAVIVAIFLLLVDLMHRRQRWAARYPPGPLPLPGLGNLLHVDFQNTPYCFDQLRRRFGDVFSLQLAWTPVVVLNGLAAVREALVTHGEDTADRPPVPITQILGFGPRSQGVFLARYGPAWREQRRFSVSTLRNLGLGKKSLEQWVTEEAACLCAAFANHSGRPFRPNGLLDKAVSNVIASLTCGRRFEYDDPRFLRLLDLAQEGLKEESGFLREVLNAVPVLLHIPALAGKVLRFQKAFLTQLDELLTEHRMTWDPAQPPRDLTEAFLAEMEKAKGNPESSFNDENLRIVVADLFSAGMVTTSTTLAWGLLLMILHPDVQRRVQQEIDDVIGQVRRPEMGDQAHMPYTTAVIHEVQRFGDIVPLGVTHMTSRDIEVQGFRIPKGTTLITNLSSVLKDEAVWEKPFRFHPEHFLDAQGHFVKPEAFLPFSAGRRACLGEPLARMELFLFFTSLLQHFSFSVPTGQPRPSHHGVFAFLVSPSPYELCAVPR

## Cc1cc(C)c[n+](CC(=O)c2cc3ccccc3oc2=O)c1
Cytochrome P450 2D6
  AC50: 11.2 µM (inconclusive)
Cytochrome P450 1A2
  AC50: 22.4 µM (inconclusive)

## CCOc1ccccc1NC(=O)c1cc(-c2ccncc2)nc2c(Cl)cccc12
[1]
  EC50: 21.2 µM (active)
[2]
  EC50: 1.97 µM (active)

## O=c1cnc2cnc(OCc3ccccc3)nc2n1Cc1ccc(F)cc1
Cytochrome P450 2C19; read-out: AC50
  AC50: 25.1 µM (inconclusive)
Cytochrome P450 2D6
  AC50: 39.8 µM (inconclusive)

## CCOC(=O)c1[nH]c(Cc2[nH]c(C(=O)OCC)c(C)c2CCC(=O)OC)c(CCC(=O)OC)c1C
[3]
  EC50: > 120 µM (not active)
[4]
  EC50: 21.2 µM (active)
[5]
  EC50: 12.1 µM (active)

## C[C@H](N)c1cccc(Cl)c1Cl
Cytochrome P450 2D6
  AC50: 31.6 µM (inconclusive)

## COc1ccc(C)cc1NC(=O)CSc1nnc(-c2ccc(OC)c(OC)c2)n1N
Cytochrome P450 2C19; read-out: AC50
  AC50: 28.2 µM (inconclusive)
Cytochrome P450 1A2
  AC50: 11.2 µM (inconclusive)

## COc1ccc(-c2nnc(CSc3nnc(-c4ccncc4)n3C3CCCCC3)o2)cc1OC
[3]
  EC50: 16.3 µM (active)
[4]
  EC50: > 120 µM (not active)
[5]
  EC50: 39.4 µM (active)

## O=C(c1c[nH]c(C(=O)N2CCN(c3ccccc3F)CC2)c1)c1cccc(Cl)c1Cl
[1]
  EC50: 2.1 µM (active)
[2]
  EC50: 2.69 µM (active)

## O=C(CSc1ncnc2c1nnn2Cc1ccc(F)cc1)NC1CCCCC1
[1]
  EC50: > 60 µM (not active)
[2]
  EC50: 4.08 µM (active)

## CN(C)c1ccc(-c2ccc3ncnc(N(C)Cc4ccco4)c3c2)cc1
Cytochrome P450 2D6
  AC50: 25.1 µM (inconclusive)

## O=C(Nc1ccc([N+](=O)[O-])cc1)C(Cc1ccccc1)N1C(=O)c2cccc3cccc(c23)C1=O (stereo not drawn)
[3]
  EC50: > 120 µM (not active)
[4]
  EC50: > 120 µM (not active)
[5]
  EC50: > 120 µM (not active)

## CC(C)n1c2ccccc2c2cc([N+](=O)[O-])ccc21
[3]
  EC50: 14.8 µM (active)
[4]
  EC50: > 120 µM (not active)
[5]
  EC50: 34.3 µM (active)

## CCc1nnc(NC(=O)CCC(=O)NCc2ccccc2OC)s1
Cytochrome P450 2D6
  AC50: 17.8 µM (inconclusive)

## Cn1c(=O)c2nc(CSCc3ccccc3)[nH]c2n(C)c1=O
Cytochrome P450 2C19
  AC50: inconclusive

## NC(=O)c1cccc(N)c1 [3-AMINOBENZAMIDE]
Cytochrome P450 2D6
  AC50: 20 µM (inconclusive)
Cytochrome P450 1A2
  AC50: 39.8 µM (inconclusive)

## CN(C)C(=O)c1ccc(-c2nc(N(C)Cc3ccco3)c3ccccc3n2)cc1
Cytochrome P450 2C19; read-out: AC50
  AC50: 31.6 µM (inconclusive)
Cytochrome P450 2D6
  AC50: 39.8 µM (inconclusive)

## CSc1cccc(NC(=S)N(Cc2ccc(C)cc2)Cc2ccccn2)c1
[1]
  EC50: > 60 µM (not active)
[2]
  EC50: 0.483 µM (active)

## O=C(N/N=C/c1cc2c(cc1Br)OCO2)c1c[nH]c2ccccc12
[1]
  EC50: > 60 µM (inconclusive)
[2]
  EC50: 2.52 µM (active)

## OCC1(CCCc2ccccc2)CCN(Cc2cnc(N3CCOCC3)s2)CC1
[1]
  EC50: > 60 µM (not active)
[2]
  EC50: 1.2 µM (active)

## CCCCSc1nnc(-c2ccc(C)cc2)n1C
Cytochrome P450 1A2
  AC50: 28.2 µM (inconclusive)

## COc1ccc(NC(=O)CC2C(=O)N(CCc3ccccc3)C(=S)N2Cc2cccnc2)cc1 (stereo not drawn)
[1]
  EC50: > 60 µM (inconclusive)
[2]
  EC50: 2.03 µM (active)

## COc1cc(O)nc(SCc2c(F)c(F)c(F)c(F)c2F)n1
[3]
  EC50: > 120 µM (not active)
[4]
  EC50: 13.9 µM (active)
[5]
  EC50: 66.4 µM (active)

## CN(C(=O)CSc1nc(O)c(C#N)c(-c2ccc(C(C)(C)C)cc2)n1)C1CCCCC1
Streptococcus
  EC50: 20.3 µM (active)

## CCC(=O)Nc1nc2ccc([N+](=O)[O-])cc2s1
[1]
  EC50: > 60 µM (not active)
[2]
  EC50: 0.241 µM (active)

## Cc1oc(-c2ccccc2F)nc1CS(=O)(=O)CC(=O)NCCCN(C)C1CCCCC1
Cytochrome P450 2D6
  AC50: 15.8 µM (inconclusive)

## O=C(CN1C2=NCCCN2c2ccccc21)c1ccc([N+](=O)[O-])cc1
[1]
  EC50: > 60 µM (not active)
[2]
  EC50: 0.436 µM (active)

## Cc1sc2ncn(CC(=O)NCCCC(=O)N3CCN(c4ncccn4)CC3)c(=O)c2c1C
Cytochrome P450 2C19; read-out: AC50
  AC50: 25.1 µM (inconclusive)

## COc1ccccc1C(=O)C1CCCN(Cc2ccc(Oc3ncccn3)cc2)C1 (stereo not drawn)
[1]
  EC50: > 60 µM (not active)
[2]
  EC50: 0.178 µM (active)
